What was measured:
Type in all cases: in vivo
Avena fatua = test: greenhouse test, post-emergence treatment, AVEFA
Text: (§1) The culture containers used were plastic flowerpots containing loamy sand with approximately 3.0% of humus as the substrate. The seeds of the test plants were sown separately for each species.
(§2) For the post-emergence treatment, the test plants were first grown to a height of 3 to 15 cm, depending on the plant habit, and only then treated with the active ingredients which had been suspended or emulsified in water. For this purpose, the test plants were either sown directly and grown in the same containers, or they were first grown separately as seedlings and transplanted into the test containers a few days prior to treatment.
(§3) Depending on the species, the plants were kept at 10-25° C. or 20-35° C., respectively.
(§4) The test period extended over 2 to 4 weeks. During this time, the plants were tended, and their response to the individual treatments was evaluated.
(§5) Evaluation was carried out using a scale from 0 to 100. 100 means no emergence of the plants, or complete destruction of at least the aerial moieties, and 0 means no damage, or normal course of growth. A good herbicidal activity is given at values of at least 70 and a very good herbicidal activity is given at values of at least 85.
(§6) The plants used in the greenhouse experiments were of the following species: […]

Apera spica-venti = test: greenhouse test, pre-emergence treatment, APESV
Text: as §1
(§7) For the pre-emergence treatment, the active ingredients, which had been suspended or emulsified in water, were applied directly after sowing by means of finely distributing nozzles. The containers were irrigated gently to promote germination and growth and subsequently covered with transparent plastic hoods until the plants had rooted. This cover caused uniform germination of the test plants, unless this had been impaired by the active ingredients.
as §3, §4, §5, §6

Alopecurus myosuroides = test: greenhouse test, post-emergence treatment, ALOMY; details: post-emergence
Text: as §1, §2, §3, §4, §5, §6

Echinocloa crus-galli [1] = test: greenhouse test, post-emergence treatment, ECHCG; details: post-emergence
Text: as §1, §2, §3, §4, §5, §6

Echinocloa crus-galli [2] = test: greenhouse test, pre-emergence treatment, ECHCG
Text: as §1, §7, §3, §4, §5, §6

COCc1nc(C2CC2)ncc1-c1ccccc1Cl [Ex. 22]
herbicidal activity (Avena fatua; 1000 g/ha): very good (a very good herbicidal activity is given at values of at least 85) | herbicidal activity (Apera spica-venti; 1000 g/ha): very good (a very good herbicidal activity is given at values of at least 85) | herbicidal activity (Alopecurus myosuroides; 1000 g/ha): very good (a very good herbicidal activity is given at values of at least 85) | herbicidal activity (Echinocloa crus-galli [1]; 1000 g/ha): very good (a very good herbicidal activity is given at values of at least 85)

COC(=O)Cc1nc(C2CC2)ncc1-c1ccccc1Br [Ex. 67]
herbicidal activity (Avena fatua; 2000 g/ha): very good (a very good herbicidal activity is given at values of at least 85) | herbicidal activity (Apera spica-venti; 2000 g/ha): very good (a very good herbicidal activity is given at values of at least 85) | herbicidal activity (Alopecurus myosuroides; 2000 g/ha): very good (a very good herbicidal activity is given at values of at least 85) | herbicidal activity (Echinocloa crus-galli [1]; 2000 g/ha): good (A good herbicidal activity is given at values of at least 70)

Brc1ccccc1-c1cnc(C2CC2)nc1-c1cocn1 [Ex. 287]
herbicidal activity (Echinocloa crus-galli [2]; 1000 g/ha): very good (a very good herbicidal activity is given at values of at least 85) | herbicidal activity (Avena fatua; 1000 g/ha): very good (a very good herbicidal activity is given at values of at least 85) | herbicidal activity (Apera spica-venti; 1000 g/ha): very good (a very good herbicidal activity is given at values of at least 85) | herbicidal activity (Alopecurus myosuroides; 1000 g/ha): very good (a very good herbicidal activity is given at values of at least 85) | herbicidal activity (Echinocloa crus-galli [1]; 1000 g/ha): very good (a very good herbicidal activity is given at values of at least 85)

C/C=C/c1nc(C2CC2)ncc1-c1ccccc1Cl [Ex. 93]
herbicidal activity (Echinocloa crus-galli [2]; 2000 g/ha): very good (a very good herbicidal activity is given at values of at least 85) | herbicidal activity (Avena fatua; 2000 g/ha): very good (a very good herbicidal activity is given at values of at least 85) | herbicidal activity (Apera spica-venti; 2000 g/ha): very good (a very good herbicidal activity is given at values of at least 85) | herbicidal activity (Alopecurus myosuroides; 2000 g/ha): very good (a very good herbicidal activity is given at values of at least 85) | herbicidal activity (Echinocloa crus-galli [1]; 2000 g/ha): very good (a very good herbicidal activity is given at values of at least 85)

Brc1ccccc1-c1cnc(C2CC2)nc1C=C1CCC1 [Ex. 157]
herbicidal activity (Echinocloa crus-galli [2]; 2000 g/ha): very good (a very good herbicidal activity is given at values of at least 85) | herbicidal activity (Avena fatua; 2000 g/ha): very good (a very good herbicidal activity is given at values of at least 85) | herbicidal activity (Apera spica-venti; 2000 g/ha): very good (a very good herbicidal activity is given at values of at least 85) | herbicidal activity (Alopecurus myosuroides; 2000 g/ha): very good (a very good herbicidal activity is given at values of at least 85) | herbicidal activity (Echinocloa crus-galli [1]; 2000 g/ha): very good (a very good herbicidal activity is given at values of at least 85)

COC(=O)C(C)c1nc(C2CC2)ncc1-c1cc(F)ccc1Cl (centres unmarked) [Ex. 159]
herbicidal activity (Echinocloa crus-galli [2]; 2000 g/ha): good (A good herbicidal activity is given at values of at least 70) | herbicidal activity (Avena fatua; 2000 g/ha): very good (a very good herbicidal activity is given at values of at least 85) | herbicidal activity (Apera spica-venti; 2000 g/ha): good (A good herbicidal activity is given at values of at least 70) | herbicidal activity (Alopecurus myosuroides; 2000 g/ha): very good (a very good herbicidal activity is given at values of at least 85)

Clc1ccccc1-c1cnc(C2CC2)nc1C=C1CCCC1 [Ex. 128]
herbicidal activity (Avena fatua; 2000 g/ha): very good (a very good herbicidal activity is given at values of at least 85) | herbicidal activity (Apera spica-venti; 2000 g/ha): very good (a very good herbicidal activity is given at values of at least 85) | herbicidal activity (Alopecurus myosuroides; 2000 g/ha): good (A good herbicidal activity is given at values of at least 70) | herbicidal activity (Echinocloa crus-galli [1]; 2000 g/ha): very good (a very good herbicidal activity is given at values of at least 85)

COC(=O)Cc1nc(C2CC2)ncc1-c1ccccc1Cl [Ex. 32]
herbicidal activity (Echinocloa crus-galli [2]; 2000 g/ha): very good (a very good herbicidal activity is given at values of at least 85) | herbicidal activity (Avena fatua; 2000 g/ha): very good (a very good herbicidal activity is given at values of at least 85) | herbicidal activity (Apera spica-venti; 2000 g/ha): very good (a very good herbicidal activity is given at values of at least 85) | herbicidal activity (Alopecurus myosuroides; 2000 g/ha): very good (a very good herbicidal activity is given at values of at least 85) | herbicidal activity (Echinocloa crus-galli [1]; 2000 g/ha): very good (a very good herbicidal activity is given at values of at least 85)

Cc1nc(C)c(-c2nc(C3CC3)ncc2-c2ccccc2Cl)o1 [Ex. 243]
herbicidal activity (Echinocloa crus-galli [2]; 1000 g/ha): very good (a very good herbicidal activity is given at values of at least 85) | herbicidal activity (Avena fatua; 1000 g/ha): very good (a very good herbicidal activity is given at values of at least 85) | herbicidal activity (Apera spica-venti; 1000 g/ha): very good (a very good herbicidal activity is given at values of at least 85) | herbicidal activity (Alopecurus myosuroides; 1000 g/ha): very good (a very good herbicidal activity is given at values of at least 85) | herbicidal activity (Echinocloa crus-galli [1]; 1000 g/ha): very good (a very good herbicidal activity is given at values of at least 85)

OC(Cc1nc(C2CC2)ncc1-c1ccccc1Cl)c1ccco1 (centres unmarked) [Ex. 106]
herbicidal activity (Echinocloa crus-galli [2]; 2000 g/ha): very good (a very good herbicidal activity is given at values of at least 85) | herbicidal activity (Avena fatua; 2000 g/ha): very good (a very good herbicidal activity is given at values of at least 85) | herbicidal activity (Apera spica-venti; 2000 g/ha): very good (a very good herbicidal activity is given at values of at least 85) | herbicidal activity (Alopecurus myosuroides; 2000 g/ha): very good (a very good herbicidal activity is given at values of at least 85) | herbicidal activity (Echinocloa crus-galli [1]; 2000 g/ha): very good (a very good herbicidal activity is given at values of at least 85)

OC(c1nc(C2CC2)ncc1-c1ccccc1Cl)C1(O)CCC1 (centres unmarked) [Ex. 154]
herbicidal activity (Echinocloa crus-galli [2]; 2000 g/ha): very good (a very good herbicidal activity is given at values of at least 85) | herbicidal activity (Avena fatua; 2000 g/ha): very good (a very good herbicidal activity is given at values of at least 85) | herbicidal activity (Apera spica-venti; 2000 g/ha): very good (a very good herbicidal activity is given at values of at least 85) | herbicidal activity (Alopecurus myosuroides; 2000 g/ha): very good (a very good herbicidal activity is given at values of at least 85) | herbicidal activity (Echinocloa crus-galli [1]; 2000 g/ha): very good (a very good herbicidal activity is given at values of at least 85)

COc1cnc(O)nc1-c1nc(C2CC2)ncc1-c1ccccc1Cl [Ex. 250]
herbicidal activity (Echinocloa crus-galli [2]; 2000 g/ha): very good (a very good herbicidal activity is given at values of at least 85) | herbicidal activity (Avena fatua; 2000 g/ha): very good (a very good herbicidal activity is given at values of at least 85) | herbicidal activity (Apera spica-venti; 2000 g/ha): very good (a very good herbicidal activity is given at values of at least 85) | herbicidal activity (Alopecurus myosuroides; 2000 g/ha): very good (a very good herbicidal activity is given at values of at least 85) | herbicidal activity (Echinocloa crus-galli [1]; 2000 g/ha): very good (a very good herbicidal activity is given at values of at least 85)

Fc1ccc(-c2cnc(C3CC3)nc2-c2ccco2)c(Cl)c1 [Ex. 54]
herbicidal activity (Avena fatua; 1000 g/ha): very good (a very good herbicidal activity is given at values of at least 85) | herbicidal activity (Apera spica-venti; 1000 g/ha): very good (a very good herbicidal activity is given at values of at least 85) | herbicidal activity (Echinocloa crus-galli [1]; 1000 g/ha): very good (a very good herbicidal activity is given at values of at least 85)

CCc1nc(C)c(-c2nc(C3CC3)ncc2-c2ccccc2Br)o1 [Ex. 290]
herbicidal activity (Echinocloa crus-galli [2]; 2000 g/ha): very good (a very good herbicidal activity is given at values of at least 85) | herbicidal activity (Avena fatua; 2000 g/ha): very good (a very good herbicidal activity is given at values of at least 85) | herbicidal activity (Apera spica-venti; 2000 g/ha): very good (a very good herbicidal activity is given at values of at least 85) | herbicidal activity (Alopecurus myosuroides; 2000 g/ha): very good (a very good herbicidal activity is given at values of at least 85) | herbicidal activity (Echinocloa crus-galli [1]; 2000 g/ha): very good (a very good herbicidal activity is given at values of at least 85)

OC(c1ccccc1)C(O)c1nc(C2CC2)ncc1-c1ccccc1Cl (centres unmarked) [Ex. 153]
herbicidal activity (Echinocloa crus-galli [2]; 2000 g/ha): very good (a very good herbicidal activity is given at values of at least 85) | herbicidal activity (Avena fatua; 2000 g/ha): very good (a very good herbicidal activity is given at values of at least 85) | herbicidal activity (Apera spica-venti; 2000 g/ha): very good (a very good herbicidal activity is given at values of at least 85) | herbicidal activity (Alopecurus myosuroides; 2000 g/ha): very good (a very good herbicidal activity is given at values of at least 85) | herbicidal activity (Echinocloa crus-galli [1]; 2000 g/ha): very good (a very good herbicidal activity is given at values of at least 85)

Cc1cc(-c2nc(C3CC3)ncc2-c2ccccc2Br)c(C)o1 [Ex. 237]
herbicidal activity (Echinocloa crus-galli [2]; 2000 g/ha): very good (a very good herbicidal activity is given at values of at least 85) | herbicidal activity (Avena fatua; 2000 g/ha): very good (a very good herbicidal activity is given at values of at least 85) | herbicidal activity (Apera spica-venti; 2000 g/ha): very good (a very good herbicidal activity is given at values of at least 85) | herbicidal activity (Alopecurus myosuroides; 2000 g/ha): very good (a very good herbicidal activity is given at values of at least 85) | herbicidal activity (Echinocloa crus-galli [1]; 2000 g/ha): very good (a very good herbicidal activity is given at values of at least 85)

CC(O)C(O)c1nc(C2CC2)ncc1-c1ccccc1Cl (centres unmarked) [Ex. 147]
herbicidal activity (Echinocloa crus-galli [2]; 2000 g/ha): very good (a very good herbicidal activity is given at values of at least 85) | herbicidal activity (Avena fatua; 2000 g/ha): very good (a very good herbicidal activity is given at values of at least 85) | herbicidal activity (Apera spica-venti; 2000 g/ha): very good (a very good herbicidal activity is given at values of at least 85) | herbicidal activity (Alopecurus myosuroides; 2000 g/ha): very good (a very good herbicidal activity is given at values of at least 85) | herbicidal activity (Echinocloa crus-galli [1]; 2000 g/ha): very good (a very good herbicidal activity is given at values of at least 85)

Brc1ccccc1-c1cnc(C2CC2)nc1-c1ccoc1 [Ex. 40]
herbicidal activity (Echinocloa crus-galli [2]; 2000 g/ha): very good (a very good herbicidal activity is given at values of at least 85) | herbicidal activity (Avena fatua; 2000 g/ha): very good (a very good herbicidal activity is given at values of at least 85) | herbicidal activity (Apera spica-venti; 2000 g/ha): very good (a very good herbicidal activity is given at values of at least 85) | herbicidal activity (Alopecurus myosuroides; 2000 g/ha): very good (a very good herbicidal activity is given at values of at least 85)

Source: patent US11178871B2, “Herbicidal pyrimidine compounds” (BASF SE, priority 2016, dated 2021)
